Paper PMC6013488, “A widely-applicable high-throughput cellular thermal shift assay (CETSA) using split Nano Luciferase” (Scientific Reports, 2018)
Structures can show the parent of a compound that is named as a salt. Where two headings read alike, the source gives them in different places.

Molecular target: T1, CDK9/cyclin K (Homo sapiens, UniProt P50750)
T1 construct: purchased Invitrogen (ThermoFisher) PV4335
Experiment: TR-FRET Lanthascreen Eu Kinase Binding assay
Settings: for Curve Class: classifies curves by quality of fit, efficacy and number of asymptotes; for Efficacy: difference between highest and lowest activity across concentration range; for Efficacy / Max Resp: in %
Text: The TR-FRET Lanthascreen Eu Kinase Binding assay for CDK9/cyclin K was purchased from ThermoFisher and performed as per manufacturer instructions.

[1] = concentration at which half maximal activity is observed, 7-point qHTS, read-out: AC50
[2] = AC50, concentration at which half maximal activity is observed, 7-point qHTS
[3] = logarithm of AC50, read-out: Log AC50 (converted)

T1 sequence (P50750 whole entry): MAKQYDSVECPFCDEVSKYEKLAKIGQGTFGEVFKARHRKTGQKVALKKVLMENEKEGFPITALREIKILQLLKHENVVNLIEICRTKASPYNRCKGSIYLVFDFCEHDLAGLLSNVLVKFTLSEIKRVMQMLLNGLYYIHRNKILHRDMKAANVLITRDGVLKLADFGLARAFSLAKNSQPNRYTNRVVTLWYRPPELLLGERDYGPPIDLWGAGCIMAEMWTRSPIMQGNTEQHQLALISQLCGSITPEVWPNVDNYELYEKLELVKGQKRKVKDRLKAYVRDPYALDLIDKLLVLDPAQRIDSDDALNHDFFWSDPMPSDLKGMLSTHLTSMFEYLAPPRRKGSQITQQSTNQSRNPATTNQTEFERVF
T1 sequence (O75909 whole entry partner): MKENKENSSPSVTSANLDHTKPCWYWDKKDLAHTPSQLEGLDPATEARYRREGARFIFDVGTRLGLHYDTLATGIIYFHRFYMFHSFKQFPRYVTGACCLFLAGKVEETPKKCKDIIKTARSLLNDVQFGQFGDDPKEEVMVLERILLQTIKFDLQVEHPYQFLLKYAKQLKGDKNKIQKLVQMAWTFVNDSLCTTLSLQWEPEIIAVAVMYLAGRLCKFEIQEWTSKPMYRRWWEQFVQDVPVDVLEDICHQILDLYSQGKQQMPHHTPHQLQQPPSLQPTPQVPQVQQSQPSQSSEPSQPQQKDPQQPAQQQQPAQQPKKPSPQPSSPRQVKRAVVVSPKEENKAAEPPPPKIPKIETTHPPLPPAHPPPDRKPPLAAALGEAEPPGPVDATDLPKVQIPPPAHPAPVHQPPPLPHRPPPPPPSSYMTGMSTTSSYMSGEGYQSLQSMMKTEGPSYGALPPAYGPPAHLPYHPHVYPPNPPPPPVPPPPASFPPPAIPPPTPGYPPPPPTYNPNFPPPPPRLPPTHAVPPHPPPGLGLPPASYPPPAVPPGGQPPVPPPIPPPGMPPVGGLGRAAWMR

SMILES	Curve Class	Efficacy	Max Resp	AC50 [1]	Log AC50 (M) (logarithm of AC50)	AC50 [2]	AC50 [3]
Nc1n[nH]c(N)c1N=Nc1ccc(O)cc1 (stereo in doubt) [CAY10574]	-1.1	-84.6	-95.5				
CCCCNc1ncc(C(=O)NCc2ccc(-n3ccnc3)cc2)c(NC2CCC(O)CC2)n1 (stereo in doubt) [UNC2881]	-1.1	-93.2	-99.2				
O=C1Nc2ccc(F)cc2/C1=C1\Nc2ccccc2\C1=N\O [5 -Fluoroindirubinoxime]	-1.1	-80.2	-86.1				
Nc1ncnc2c1c(I)cn2[C@@H]1O[C@H](CO)[C@H](O)C1O (stereo partly drawn) [5-Iodotubercidin]	-1.1	-92.5	-99.1				
COc1ccc2c(NC(=O)Nc3cccc(C(F)(F)F)n3)ccnc2c1 [A 1070722]	-1.4	-58.3	-64.1				
CC(C)n1nc(-c2ccc(NC(=O)Nc3cccc(C(F)(F)F)c3)cc2)c2c(N)ncnc21 [AD57 (hydrochloride)]	-1.1	-86.8	-79.5				
N#C/C(=C1\Nc2ccccc2S1)c1ccnc(NCCc2cccnc2)n1 [AS601245]	-1.2	-79.8	-85.8				
O=C(NC1CCNCC1)c1[nH]ncc1NC(=O)c1c(Cl)cccc1Cl [AT7519]	5	-14.9	-96.9				
O=C(Nc1c[nH]nc1-c1nc2ccc(CN3CCOCC3)cc2[nH]1)NC1CC1 [AT9283]	-1.1	-93.9	-97.0				
CC(C)Oc1cc(Nc2nc(N[C@@H](C)c3ccc(F)cn3)ncc2Cl)n[nH]1 [AZ 23]	-1.2	-76.1	-97.4				
Cc1ncc(-c2ccnc(Nc3ccc(S(C)(=O)=O)cc3)n2)n1C(C)C [AZD5438]	-1.2	-75.7	-98.3				
CN[C@H]1CCN(C(=O)c2ccc(Nc3ncc(F)c(-c4cnc(C)n4C(C)C)n3)cc2)C1 [AZD-5597]	-1.3	-51.7	-96.5				
O=C1Cc2c([nH]c3ccc([N+](=O)[O-])cc23)-c2ccccc2N1 [Alsterpaullone]	-1.1	-82.6	-92.4				
CC(=O)N1CCN(C(=O)Cc2ccc(Nc3ncc(F)c(Nc4ccc(C(=O)Nc5ccccc5Cl)cc4)n3)cc2)CC1 [Aurora A inhibitor II]	-1.1	-82.6	-83.7	947 nM	-6.0 M		
COc1ccc(-c2cc3nccn3c(Nc3ncccc3C(N)=O)n2)cc1OC [BAY 61-3606 (dihydrochloride)]	-1.1	-91.8	-92.1				
CC(C)c1cnn2c(NCc3ccccc3)cc(N[C@@H](CO)[C@H](O)CO)nc12 [BS194]	-1.1	-108.2	-95.8				
O=C(NCCCNc1nc(Nc2cccc(NC(=O)N3CCCC3)c2)ncc1I)c1cccs1 [BX-795 hydrochloride]	-1.1	-99.6	5.8				
COCCOc1ccc2c(c1)ncn2-c1ccc2cccc(N3CCC(N)CC3)c2n1 [CP-673451]	-1.1	-83.3	-91.2	150 nM			
CC1(COc2ccc3c(c2)ncn3-c2ccc3cccc(N4CCC(N)CC4)c3n2)COC1 [CP-868596 (Crenolanib)]	-1.1	-91.6	-90.2				
COc1ccc(CNc2nc(N(CCO)CCO)nc3c2ncn3C(C)C)cc1 [CVT-313]	-1.1	-101.1	-99.9	532 nM			

SMILES	Curve Class	Efficacy	Max Resp	AC50 [1]	Log AC50 (M) (logarithm of AC50)	AC50 [2]	AC50 [3]
O=C(O)c1ccc2c(c1)nc(Nc1cccc(Cl)c1)c1ccncc12 [CX-4945 (sodium salt)]	-1.1	-98.0	-93.5				
NS(=O)(=O)c1ccc(NN=C2C(=O)Nc3ccc(Br)cc32)cc1 [Cdk2 Inhibitor II]	-1.2	-67.2	-64.7				
CC(C)c1nn(-c2c(Cl)cccc2Cl)c2nc(Cc3ccc(OCCO)cc3)[nH]c(=O)c12 [Cdk/Crk Inhibitor]	-1.2	-57.1	-99.2				
Cc1n[nH]c2ccc(-c3cncc(OC[C@@H](N)Cc4c[nH]c5ccccc45)c3)cc12 [Compound A-443654, A-443654]	-1.1	-88.0	-96.6				
Cc1n[nH]c2ccc(-c3cncc(OC[C@@H](N)Cc4ccccc4)c3)cc12 [Compound A-674563, A-674563]	-1.1	-89.8	-98.7				
O=C1Nc2ccc3ncsc3c2/C1=C/c1c[nH]cn1 [Compound C16, C16]	-1.2	-77.3	-68.5				
CN1CCC(c2c(O)cc(O)c3c(=O)cc(-c4ccccc4Cl)oc23)C1CO (stereo not drawn) [Compound P276-00, P276-00]	-1.2	-60.7	-99.0				
COc1ccc(F)c(F)c1C(=O)c1cnc(NC2CCN([S+](C)(=O)[O-])CC2)nc1N [Compound R547, R547]	5	-13.4	-94.3				
NC(=O)c1ccccc1Nc1ccnc(Nc2cccc(O)c2)n1 [DB07268]	-1.1	-100.7	-97.2				
CN(C)c1nc2c(Br)c(Br)c(Br)c(Br)c2[nH]1 [DMAT]	-1.1	-84.2	-94.6				
CNC(=O)c1ccc(Nc2ncc(C(F)(F)F)c(NCc3nccnc3N(C)[S+](C)(=O)[O-])n2)cc1 [Defactinib (VS-6063, PF-04554878)]	-1.1	-79.8	-50.3				
O=C(Nc1ccnc(NC(=O)C2CC2)c1)c1c(Cl)cccc1Cl [GDC-046]	-1.1	-83.7	-94.2	33.6 nM			31.6 nM
CN(C)CCCn1cc(C2=C(c3c[nH]c4ccccc34)C(=O)NC2=O)c2ccccc21 [GF109203X]	-1.2	-69.1	-74.0				
O=C1Nc2ccc3ncsc3c2/C1=C/Nc1ccc([S+](=O)([O-])Nc2ccccn2)cc1 [GW8510]	-1.1	-99.4	-92.5				
COc1ccc(-c2oc3ncnc(N)c3c2-c2ccc(NC(=O)Nc3cc(C(F)(F)F)ccc3F)cc2)cc1 [GW768505A]	-1.1	-85.9	-78.2				631 nM
O=C(Nc1nc2ccccc2n1CCN1CCOCC1)c1cccc([N+](=O)[O-])c1 [IRAK-1-4 Inhibitor I]	-1.2	-75.6					
O=C1Nc2ccccc2/C1=C1/Nc2ccccc2/C1=N\OCCC(O)CO (stereo not drawn) [Indirubin_E8]	-1.1	-83.1	-81.2				
CN(C)C/C=C/C(=O)Nc1cccc(C(=O)Nc2ccc(Nc3nccc(-c4cccnc4)n3)cc2)c1 [JNK-IN-7]	-1.1	-86.0	-91.6				
CCOC(=O)c1c(/C(C#N)=C\N)c2ccc(Cl)c(Cl)c2n1C [KH-CB19]	-1.1	-88.2	-90.2			336 nM	
O=C1Cc2c([nH]c3ccc(Br)cc23)-c2ccccc2N1 [Kenpaullone]	-1.1	-80.5	-37.7	336 nM			

Continued, in another order:

Curve Class	Efficacy	Max Resp	SMILES	AC50 [1]	Log AC50 (M) (logarithm of AC50)	AC50 [2]	AC50 [3]
-1.2	-77.1	-79.3	Cc1cc(CN2CCN(c3c(Br)cnc4[nH]c(-c5ccc(N6CCN(C)CC6)cc5)nc34)CC2)no1 [CCT137690]				
-1.2	-56.9	-98.0	OCCCNc1cc(-c2ccnc(Nc3cccc(Cl)c3)n2)ccn1 [CGP60474]				
-1.1	-87.0	-80.6	Nc1nc(NCCNc2ncc(-n3ccnc3)c(-c3ccc(Cl)cc3Cl)n2)ccc1[N+](=O)[O-] [CHIR98014]			134 nM	
-1.1	-92.0	-90.5	Cc1nc(N)sc1-c1ccnc(Nc2ccc(N3CCOCC3)cc2)n1 [CYC-116]				
-1.1	-85.8	-96.7	N#CCNC(=O)c1ccc(-c2ccnc(Nc3ccc(N4CCOCC4)cc3)n2)cc1 [CYT-387]				
-1.1	-89.8	-91.2	O=C1NC(=O)/C(=C/c2ccc3nccc(-c4ccncc4)c3c2)S1 [GSK1059615]				
-1.2	-77.0	-89.0	O=C(O)c1ccc(-c2c[nH]c3ncc(-c4ccccc4)cc23)cc1C1CCCC1 [GSK-650394]				
-1.2	-79.9	-87.0	O=C1NC(=O)/C(=C/c2ccc3nccc(-c4ccncc4)c3c2)S1 [GSK-1059615]				
-1.1	-93.4	-97.5	Nc1nc(Nc2ccc(S(N)(=O)=O)cc2)nn1C(=O)c1c(F)cccc1F [JNJ7706621]				
-1.1	-96.3	-94.5	COc1ccccc1-c1cc(Nc2cccc(C[S+](N)(=O)[O-])c2)ncn1 [LDC000067]				
